Values quoted from earlier work in patent US20030004142A1, “Use of NSAIDs for prevention and treatment of cellular abnormalities of the lung or bronchial pathway” (priority 2001, published 2003).

Experiments:
[1] = system: OPC cell lines; settings: all OPC cell lines tested
[2] = system: OPC
[3] = system: OPC cell lines; settings: all OPC cell lines tested; remark: listed apart in the source

With `O=C(c1ccccc1)c1ccc2n1CCC2C(=O)O` (stereo not shown) [ketorolac, (.+−.)5(benzoyl)-2,3-dihydro-1H-pyrrolizine-1carboxylic acid] as the compound, how does the IL-6 levels [1] read?
Its IL-6 levels is “continuously and significantly decreased”.

What about the IL-8 levels [1] of the same compound?
Its IL-8 levels is “continuously and significantly decreased”.

What about the “OPC growth in vivo” value [2] of the same compound?
The value was “reduced OPC growth in vivo”.

What about the PGE2 production [3] of the same compound?
The PGE2 production was “continuously and significantly decreased”.
